In the NIST ThermoML archive (doi:10.1021/je5010214):
± gives the expanded uncertainty stated by the source.

Conditions: Liquid, Vibrating tube method

With CCCCO [butan-1-ol] the mass density (293.15 K, 9042.1 kPa) was 816.992 ± 0.81 kg/m3, the mass density (293.15 K, 10036 kPa) was 817.626 ± 0.82 kg/m3 and the mass density (293.15 K, 11947 kPa) was 818.963 ± 0.82 kg/m3. It also gave a mass density (293.15 K, 14941 kPa) of 820.924 ± 0.82 kg/m3, a mass density (293.15 K, 21987 kPa) of 825.417 ± 0.83 kg/m3 and a mass density (293.15 K, 27986 kPa) of 829.06 ± 0.84 kg/m3. The mass density (293.15 K, 28066 kPa) was 829.163 ± 0.84 kg/m3, the mass density (293.15 K, 33151 kPa) was 832.036 ± 0.85 kg/m3 and the mass density (293.15 K, 34099 kPa) was 832.526 ± 0.85 kg/m3. For the same compound, the mass density (293.15 K, 35000 kPa) was 833.078 ± 0.85 kg/m3, the mass density (293.15 K, 40081 kPa) was 835.959 ± 0.86 kg/m3 and the mass density (293.15 K, 42099 kPa) was 837.008 ± 0.86 kg/m3. The mass density (293.15 K, 45068 kPa) was 838.658 ± 0.87 kg/m3, the mass density (293.15 K, 54966 kPa) was 843.81 ± 0.89 kg/m3 and the mass density (293.15 K, 58072 kPa) was 845.282 ± 0.9 kg/m3. It also gave a mass density (293.15 K, 66045 kPa) of 849.224 ± 0.91 kg/m3, a mass density (293.16 K, 305.2 kPa) of 810.686 ± 0.81 kg/m3 and a mass density (293.16 K, 476.4 kPa) of 810.81 ± 0.81 kg/m3. For the same compound, the mass density (293.16 K, 1045.2 kPa) was 811.221 ± 0.81 kg/m3, the mass density (293.16 K, 7096.8 kPa) was 815.616 ± 0.81 kg/m3 and the mass density (293.16 K, 17889 kPa) was 822.832 ± 0.83 kg/m3. It also gave a mass density (293.16 K, 19992 kPa) of 824.147 ± 0.83 kg/m3, a mass density (293.16 K, 24983 kPa) of 827.251 ± 0.84 kg/m3 and a mass density (293.16 K, 29976 kPa) of 830.11 ± 0.84 kg/m3. The mass density (293.16 K, 32232 kPa) was 831.521 ± 0.85 kg/m3, the mass density (293.16 K, 38027 kPa) was 834.783 ± 0.86 kg/m3 and the mass density (293.16 K, 48022 kPa) was 840.192 ± 0.88 kg/m3. It also gave a mass density (293.16 K, 50085 kPa) of 841.31 ± 0.88 kg/m3, a mass density (293.16 K, 52032 kPa) of 842.308 ± 0.88 kg/m3 and a mass density (293.16 K, 60018 kPa) of 846.257 ± 0.9 kg/m3. The mass density (293.16 K, 61962 kPa) was 847.209 ± 0.9 kg/m3, the mass density (293.16 K, 64991 kPa) was 848.649 ± 0.91 kg/m3 and the mass density (298.15 K, 98.1 kPa) was 806.282 ± 0.81 kg/m3. It also gave a mass density (298.15 K, 305.4 kPa) of 806.45 ± 0.81 kg/m3, a mass density (298.15 K, 854.5 kPa) of 806.874 ± 0.81 kg/m3 and a mass density (298.15 K, 1980.9 kPa) of 807.747 ± 0.81 kg/m3. It also gave a mass density (298.15 K, 3167.8 kPa) of 808.637 ± 0.81 kg/m3, a mass density (298.15 K, 5067.6 kPa) of 810.04 ± 0.81 kg/m3 and a mass density (298.15 K, 7065.3 kPa) of 811.55 ± 0.81 kg/m3. For the same compound, the mass density (298.15 K, 10107 kPa) was 813.67 ± 0.82 kg/m3, the mass density (298.15 K, 20128 kPa) was 820.445 ± 0.83 kg/m3 and the mass density (298.15 K, 22004 kPa) was 821.641 ± 0.83 kg/m3. For the same compound, the mass density (298.15 K, 25081 kPa) was 823.55 ± 0.84 kg/m3, the mass density (298.15 K, 33113 kPa) was 828.365 ± 0.85 kg/m3 and the mass density (298.15 K, 33924 kPa) was 828.845 ± 0.85 kg/m3. The mass density (298.15 K, 38097 kPa) was 831.213 ± 0.86 kg/m3, the mass density (298.15 K, 40161 kPa) was 832.357 ± 0.86 kg/m3 and the mass density (298.15 K, 42029 kPa) was 833.462 ± 0.87 kg/m3. For the same compound, the mass density (298.15 K, 42359 kPa) was 833.614 ± 0.87 kg/m3, the mass density (298.15 K, 45021 kPa) was 835.052 ± 0.87 kg/m3 and the mass density (298.15 K, 48107 kPa) was 836.745 ± 0.88 kg/m3. For the same compound, the mass density (298.15 K, 50068 kPa) was 837.797 ± 0.88 kg/m3, the mass density (298.15 K, 55016 kPa) was 840.375 ± 0.89 kg/m3 and the mass density (298.15 K, 57931 kPa) was 841.819 ± 0.9 kg/m3. The mass density (298.15 K, 59914 kPa) was 842.826 ± 0.9 kg/m3, the mass density (298.15 K, 62036 kPa) was 843.934 ± 0.91 kg/m3 and the mass density (298.15 K, 65018 kPa) was 845.412 ± 0.91 kg/m3. It also gave a mass density (298.16 K, 493.7 kPa) of 806.599 ± 0.81 kg/m3, a mass density (298.16 K, 1012.6 kPa) of 806.992 ± 0.81 kg/m3 and a mass density (298.16 K, 9120.9 kPa) of 813.012 ± 0.81 kg/m3. It also gave a mass density (298.16 K, 11970 kPa) of 814.957 ± 0.82 kg/m3, a mass density (298.16 K, 15220 kPa) of 817.234 ± 0.82 kg/m3 and a mass density (298.16 K, 17984 kPa) of 819.076 ± 0.83 kg/m3. The mass density (298.16 K, 28040 kPa) was 825.42 ± 0.84 kg/m3, the mass density (298.16 K, 30089 kPa) was 826.686 ± 0.85 kg/m3 and the mass density (298.16 K, 32030 kPa) was 827.814 ± 0.85 kg/m3. It also gave a mass density (298.16 K, 35217 kPa) of 829.575 ± 0.85 kg/m3, a mass density (298.16 K, 52020 kPa) of 838.835 ± 0.89 kg/m3 and a mass density (298.16 K, 66118 kPa) of 845.919 ± 0.92 kg/m3. The mass density (303.15 K, 304.1 kPa) was 802.278 ± 0.81 kg/m3, the mass density (303.15 K, 498.9 kPa) was 802.435 ± 0.81 kg/m3 and the mass density (303.15 K, 900.6 kPa) was 802.733 ± 0.81 kg/m3. It also gave a mass density (303.15 K, 979.1 kPa) of 802.787 ± 0.81 kg/m3, a mass density (303.15 K, 1977.6 kPa) of 803.554 ± 0.81 kg/m3 and a mass density (303.15 K, 4930.4 kPa) of 805.792 ± 0.81 kg/m3. The mass density (303.15 K, 11975 kPa) was 810.901 ± 0.82 kg/m3, the mass density (303.15 K, 15044 kPa) was 812.956 ± 0.82 kg/m3 and the mass density (303.15 K, 19974 kPa) was 816.207 ± 0.83 kg/m3.
